From ChEMBL document CHEMBL1201862, “PubChem BioAssay data set” (2004) come the findings set out here.

Test [1] has as its target T1, RNA-binding protein pos-1 (Caenorhabditis elegans, UniProt G5EF15).
T1 sequence (G5EF15 whole entry): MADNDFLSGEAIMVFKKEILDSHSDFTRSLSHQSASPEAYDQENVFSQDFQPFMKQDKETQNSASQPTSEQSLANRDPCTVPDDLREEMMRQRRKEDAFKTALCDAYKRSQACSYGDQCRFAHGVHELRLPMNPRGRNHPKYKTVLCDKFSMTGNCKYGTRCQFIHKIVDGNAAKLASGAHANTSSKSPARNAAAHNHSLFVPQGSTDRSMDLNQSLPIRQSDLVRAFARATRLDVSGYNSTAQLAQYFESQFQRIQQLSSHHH
Kind of test: disruptors of C. elegans POS-1 RNA interaction – biochemical, fluorescence polarization, dose response (AID 1964).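 Further: purified POS-1 fused to maltose binding protein made in E. coli; potency of compounds blocking POS-1 binding to fluorescent RNA.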

In test [2] the target is T2, Zinc finger protein mex-5 (Caenorhabditis elegans, UniProt Q9XUB2).
T2 sequence (Q9XUB2 whole entry): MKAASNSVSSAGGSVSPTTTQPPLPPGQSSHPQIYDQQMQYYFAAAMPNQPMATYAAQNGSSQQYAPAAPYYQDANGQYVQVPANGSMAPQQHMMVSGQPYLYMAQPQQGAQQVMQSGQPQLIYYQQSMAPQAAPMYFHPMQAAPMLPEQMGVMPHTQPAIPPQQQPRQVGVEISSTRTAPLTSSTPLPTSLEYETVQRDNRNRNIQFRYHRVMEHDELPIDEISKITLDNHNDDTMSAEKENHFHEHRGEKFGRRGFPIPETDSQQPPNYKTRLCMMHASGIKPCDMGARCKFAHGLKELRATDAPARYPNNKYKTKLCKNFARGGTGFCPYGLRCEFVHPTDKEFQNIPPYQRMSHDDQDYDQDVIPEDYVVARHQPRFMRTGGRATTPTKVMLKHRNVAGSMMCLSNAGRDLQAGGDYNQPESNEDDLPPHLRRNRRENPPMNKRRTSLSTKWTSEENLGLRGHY
Kind of test: potency of MEX-5 RNA-binding blockers – biochemical, C. elegans, fluorescence polarization, dose response (AID 1960). (Fluorescence polarisation rises when a labelled molecule tumbles more slowly, as on binding a larger partner.)

The subject of another test is CHO-K1. Put plainly: Counterscreen for antagonists of the orexin 1 receptor (OX1R; HCRTR1): Homogeneous time resolved fluorescence (HTRF)-based cell-based dose response assay to identify antagonists of the parental CHO-K1 cell line. [Related pubchem assays (depositor defined):AID434989, AID435008, AID463079, AID485270, AID492963, AID492964, AID492965, AID493232, AID504699, AID504701]. The class given is functional. Particulars: Cricetulus griseus. (Counterscreens check selectivity or assay interference.)

A short description of test [3]: Counterscreen for antagonists of the orexin 1 receptor (OX1R; HCRTR1): Fluorescence-based cell-based high throughput dose response assay to identify antagonists of the parental CHO cell line. [Related pubchem assays (depositor defined):AID434989, AID435008, AID463079, AID485270, AID492963, AID492964, AID492965, AID493232, AID504699, AID504701]. The class given is functional.

In test [4] the target is T3, Orexin/Hypocretin receptor type 1 (Homo sapiens, UniProt O43613). Kind of test: Homogeneous Time Resolved Fluorescence (HTRF)-based cell-based high throughput dose response assay for antagonists of the orexin 1 receptor (OX1R; HCRTR1). [Related pubchem assays (depositor defined):AID434989, AID435008, AID463079, AID485270, AID492963, AID492964, AID492965, AID493232, AID504717, AID504718]. The class given is functional. For orientation: In TR-FRET formats the signal depends on donor and acceptor labels being close together.
T3 sequence (O43613 whole entry): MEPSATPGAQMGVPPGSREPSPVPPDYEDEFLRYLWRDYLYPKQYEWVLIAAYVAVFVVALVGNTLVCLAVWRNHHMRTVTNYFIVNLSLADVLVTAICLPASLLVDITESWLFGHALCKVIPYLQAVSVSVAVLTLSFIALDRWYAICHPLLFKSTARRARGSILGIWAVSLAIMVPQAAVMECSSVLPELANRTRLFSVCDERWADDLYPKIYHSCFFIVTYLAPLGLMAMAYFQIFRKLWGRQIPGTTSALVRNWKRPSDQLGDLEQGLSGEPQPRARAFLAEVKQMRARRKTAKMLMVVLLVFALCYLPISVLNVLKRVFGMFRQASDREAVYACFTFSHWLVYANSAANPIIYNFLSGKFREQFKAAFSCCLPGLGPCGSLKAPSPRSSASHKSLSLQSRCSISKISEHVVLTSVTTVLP

Test [5] has as its target T3, Orexin/Hypocretin receptor type 1. Kind of test: Fluorescence-based cell-based high throughput dose response assay for antagonists of the orexin 1 receptor (OX1R; HCRTR1). [Related pubchem assays (depositor defined):AID434989, AID435008, AID463079, AID485270, AID492963, AID492964, AID492965, AID493232, AID504717, AID504718]. The class given is functional.
Test [6] concerns the target T4, Polyadenylate-binding protein 1 (Homo sapiens, UniProt P11940). Kind of test: MLLE binding blockers, Cy5 peptide tracer – biochemical, fluorescence polarization, Cy5-PAM2 peptide, secondary, miRNA deadenylation inhibitor project, dose response (AID 602260). The class given is functional. The conditions noted are these: read-out: IC50_Mean.
In test [7] the target is T4, Polyadenylate-binding protein 1. Kind of test: MLLE domain peptide-binding blockers, IC50 – biochemical, fluorescence polarization, FITC-PAM2 peptide, dose response (AID 602259). The class given is functional. The conditions noted are these: read-out: IC50_Mean.
In test [8] the target is T5, Orexin receptor type 2 (Homo sapiens, UniProt O43614). Kind of test: Counterscreen assay for antagonists of the orexin 1 receptor (OX1R; HCRTR1): Fluorescence-based cell-based dose response assay for antagonists of the orexin 2 receptor (OX2R; HCRTR2), run by assay provider. The class given is functional.
T5 sequence (O43614 whole entry): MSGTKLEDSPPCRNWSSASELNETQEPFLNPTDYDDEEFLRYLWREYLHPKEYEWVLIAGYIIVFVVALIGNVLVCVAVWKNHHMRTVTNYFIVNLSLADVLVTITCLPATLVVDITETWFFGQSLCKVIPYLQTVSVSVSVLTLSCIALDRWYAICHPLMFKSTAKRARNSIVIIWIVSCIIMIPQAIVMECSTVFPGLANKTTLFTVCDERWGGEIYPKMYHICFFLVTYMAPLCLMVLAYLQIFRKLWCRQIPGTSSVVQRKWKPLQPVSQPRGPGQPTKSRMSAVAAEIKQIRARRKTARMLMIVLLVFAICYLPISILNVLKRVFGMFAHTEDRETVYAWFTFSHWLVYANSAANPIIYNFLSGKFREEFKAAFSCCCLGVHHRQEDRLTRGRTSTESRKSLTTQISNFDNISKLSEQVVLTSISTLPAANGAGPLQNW
The target in test [9] is T5, Orexin receptor type 2. Kind of test: Counterscreen assay for antagonists of the orexin 1 receptor (OX1R; HCRTR1): Homogeneous Time Resolved Fluorescence (HTRF)-based cell-based dose response assay for antagonists of the orexin 2 receptor (OX2R; HCRTR2), run by assay provider. The class given is functional.
The target in test [10] is T6, Insulin-degrading enzyme (Homo sapiens, UniProt P14735). Put plainly: recombinant IDE activation, cell-free – biochemical, fluorescence polarization, counter-screen for IDE activator project, dose response (AID 588681).
T6 sequence (P14735 whole entry): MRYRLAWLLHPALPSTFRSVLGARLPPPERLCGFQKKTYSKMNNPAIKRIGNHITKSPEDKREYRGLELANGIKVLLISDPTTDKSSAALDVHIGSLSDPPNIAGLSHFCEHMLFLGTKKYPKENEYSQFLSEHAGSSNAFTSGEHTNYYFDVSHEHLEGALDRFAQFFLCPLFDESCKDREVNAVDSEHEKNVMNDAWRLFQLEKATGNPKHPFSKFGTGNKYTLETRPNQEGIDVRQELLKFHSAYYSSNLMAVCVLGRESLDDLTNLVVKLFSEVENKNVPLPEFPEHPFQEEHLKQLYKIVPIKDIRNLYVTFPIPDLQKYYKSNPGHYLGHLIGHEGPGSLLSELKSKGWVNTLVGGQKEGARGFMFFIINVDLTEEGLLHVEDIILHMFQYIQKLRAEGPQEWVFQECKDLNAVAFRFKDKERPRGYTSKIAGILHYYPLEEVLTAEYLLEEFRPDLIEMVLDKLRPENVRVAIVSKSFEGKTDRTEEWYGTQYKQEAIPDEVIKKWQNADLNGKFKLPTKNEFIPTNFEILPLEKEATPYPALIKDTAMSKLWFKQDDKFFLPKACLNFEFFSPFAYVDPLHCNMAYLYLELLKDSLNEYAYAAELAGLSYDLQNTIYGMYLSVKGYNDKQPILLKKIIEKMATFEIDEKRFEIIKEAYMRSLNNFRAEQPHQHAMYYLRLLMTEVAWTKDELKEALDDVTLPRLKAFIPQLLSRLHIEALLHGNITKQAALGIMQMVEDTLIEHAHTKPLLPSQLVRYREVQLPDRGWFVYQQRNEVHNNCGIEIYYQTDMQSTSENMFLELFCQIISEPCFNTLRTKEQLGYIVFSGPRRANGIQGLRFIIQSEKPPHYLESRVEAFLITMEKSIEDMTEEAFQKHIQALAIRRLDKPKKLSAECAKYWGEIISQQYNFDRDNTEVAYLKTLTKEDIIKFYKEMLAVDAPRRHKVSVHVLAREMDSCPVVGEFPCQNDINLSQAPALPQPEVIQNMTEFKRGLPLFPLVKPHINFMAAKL
The target of test [11] is T6, Insulin-degrading enzyme. Put plainly: cellular IDE activation of Abeta substrate cleavage – fluorescence polarization, HEK cells, dose response (AID 588439). The class given is functional, cell-based.
For test [12], the system named is HEK293. Kind of test: membrane integrity loss in HEK cells – cell-based, fluorescence, cytotoxicity control for IDE activator project, dose response (AID 588440).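 Further: cytotoxicity by LDH release measuring loss of membrane integrity.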 The class given is functional. The conditions noted are these: Homo sapiens.
The subject of test [13] is HEK293. Put plainly: optical interference in Abeta FP readout, dose response, artefact control for IDE activator project, biochemical, fluorescence polarization (AID 588442). The class given is functional, cell-based. The conditions noted are these: Homo sapiens.

Activity calls are given as the source filed them. A value given as a limit tells only on which side of the number the result lay.

T4 sequence (P11940 whole entry, the tested form may be a part): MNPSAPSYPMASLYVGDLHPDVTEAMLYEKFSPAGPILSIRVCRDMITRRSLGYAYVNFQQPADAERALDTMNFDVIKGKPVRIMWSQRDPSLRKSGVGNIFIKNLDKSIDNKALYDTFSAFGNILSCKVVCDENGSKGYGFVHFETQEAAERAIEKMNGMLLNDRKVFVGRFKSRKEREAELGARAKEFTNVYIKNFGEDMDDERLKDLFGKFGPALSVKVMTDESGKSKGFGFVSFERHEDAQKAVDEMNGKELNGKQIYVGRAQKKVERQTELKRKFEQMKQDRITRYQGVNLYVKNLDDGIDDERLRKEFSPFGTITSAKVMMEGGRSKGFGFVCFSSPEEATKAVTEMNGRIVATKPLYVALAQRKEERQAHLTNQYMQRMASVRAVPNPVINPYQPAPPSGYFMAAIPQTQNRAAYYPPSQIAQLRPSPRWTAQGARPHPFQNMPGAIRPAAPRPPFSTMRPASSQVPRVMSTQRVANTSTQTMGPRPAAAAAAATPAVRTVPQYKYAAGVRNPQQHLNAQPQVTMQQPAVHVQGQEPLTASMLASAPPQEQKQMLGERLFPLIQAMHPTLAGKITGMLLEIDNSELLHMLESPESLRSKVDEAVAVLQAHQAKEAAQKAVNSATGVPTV

In the case of `COc1ccc(/C=c2\sc3nc(-c4ccccc4OC)nn3c2=O)c(OC)c1`, the concentration for a half-maximal effect (EC50) – broadly, the midpoint of the concentration-response curve – in test [1] is 21.5 µM (active); in [2] it was 31.4 µM (active). In addition, the IC50 was > 66.2 µM (inactive) in the test on CHO-K1; > 49.8 µM (inactive) in test [3]; 0.723 µM (active) in [4]; 0.526 µM (active) in test [5]; > 66 µM (inactive) in test [6]; 48.3 µM (inactive) in [7]. Also, the IC50 at Orexin receptor type 2 [8] is 33.5 µM (inactive); on Orexin receptor type 2 [9], > 50 µM (inactive).

On to `CC(C)CCn1nnnc1CN1CCN(c2ccccc2)CC1`, for which the EC50 was 29.8 µM (inactive) at Insulin-degrading enzyme [10], 32.3 µM (inactive) on Insulin-degrading enzyme [11] and > 55.9 µM (inactive) in the test on HEK293 [13]. Moreover, in the test with HEK293 [12], the IC50 was > 89.1 µM (inactive).
